The subject of assay [1] is Human immunodeficiency virus 1. Description: Antiviral activity against wild type HIV1 infected in human MT4 cells. Format: functional, organism-based. To be noted: Human immunodeficiency virus 1, MT4.
Assay [2] deals with Sodium-dependent serotonin transporter (Homo sapiens, UniProt P31645). Briefly: Inhibition of 5HT transporter (unknown origin).
Another assay relates to Plasmodium falciparum. Briefly: Antiplasmodial activity against chloroquine-resistant Plasmodium falciparum Dd2. The format is functional, organism-based.
Assay [3] in a line: Inhibition of TNFalpha-induced NFkappaB activation in HEK293 cells preincubated for 6 hrs followed by TNFalpha addition by luciferase reporter gene assay. Format: cell-based. To be noted: Homo sapiens. For orientation: Reporter assays use an easily measured gene product as a stand-in for the process of interest.
The subject of assay [4] is RAW264.7. Description: Inhibition of LPS-induced nitric oxide production in mouse RAW264.7 cells preincubated for 15 mins followed by LPS stimulation measured after 20 hrs by griess assay. Format: functional, cell-based. On the technique in general: Griess reagent forms a coloured azo dye with nitrite.
The subject of assay [5] is Human immunodeficiency virus 1. Briefly: Antiviral activity against wild type HIV1 3B infected in human MT2 cells after 3 days by BrightGlo luciferase reporter gene assay. Format: functional, organism-based. To be noted: Human immunodeficiency virus 1, 3B, MT2, 72 h.
Assay [6] deals with Human immunodeficiency virus 1. Briefly: Antiviral activity against HIV1 infected in human MT4 cells. Format: functional, organism-based. Conditions: Human immunodeficiency virus 1, MT4.
Assay [7] deals with Mycobacterium tuberculosis. Description: Antimycobacterial activity against Mycobacterium tuberculosis. The format is functional.
The test system of assay [8] is Mycobacterium tuberculosis. Description: Antimycobacterial activity against drug-sensitive Mycobacterium tuberculosis. The format is functional.
The target of assay [9] is T1, Dihydrofolate reductase (Mycobacterium tuberculosis, UniProt P9WNX1).
T1 sequence (P9WNX1 whole entry): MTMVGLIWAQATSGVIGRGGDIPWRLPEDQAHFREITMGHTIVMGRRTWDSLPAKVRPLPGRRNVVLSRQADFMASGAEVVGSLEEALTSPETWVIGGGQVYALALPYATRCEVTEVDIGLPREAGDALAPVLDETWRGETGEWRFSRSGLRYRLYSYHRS
Description: Inhibition of Mycobacterium tuberculosis H37Rv DHFR.

Assay [10] concerns the target T2, Dihydrofolate reductase (Homo sapiens, UniProt P00374).
T2 sequence (P00374 whole entry): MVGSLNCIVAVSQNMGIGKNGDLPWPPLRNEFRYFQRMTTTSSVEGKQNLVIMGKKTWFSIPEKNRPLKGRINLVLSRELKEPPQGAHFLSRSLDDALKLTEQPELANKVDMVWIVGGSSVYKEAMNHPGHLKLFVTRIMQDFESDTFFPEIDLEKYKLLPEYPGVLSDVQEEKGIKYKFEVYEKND
Briefly: Inhibition of human DHFR.

Assay [11] addresses T3, Prostaglandin G/H synthase 2 (Homo sapiens, UniProt P35354).
T3 sequence (P35354 whole entry): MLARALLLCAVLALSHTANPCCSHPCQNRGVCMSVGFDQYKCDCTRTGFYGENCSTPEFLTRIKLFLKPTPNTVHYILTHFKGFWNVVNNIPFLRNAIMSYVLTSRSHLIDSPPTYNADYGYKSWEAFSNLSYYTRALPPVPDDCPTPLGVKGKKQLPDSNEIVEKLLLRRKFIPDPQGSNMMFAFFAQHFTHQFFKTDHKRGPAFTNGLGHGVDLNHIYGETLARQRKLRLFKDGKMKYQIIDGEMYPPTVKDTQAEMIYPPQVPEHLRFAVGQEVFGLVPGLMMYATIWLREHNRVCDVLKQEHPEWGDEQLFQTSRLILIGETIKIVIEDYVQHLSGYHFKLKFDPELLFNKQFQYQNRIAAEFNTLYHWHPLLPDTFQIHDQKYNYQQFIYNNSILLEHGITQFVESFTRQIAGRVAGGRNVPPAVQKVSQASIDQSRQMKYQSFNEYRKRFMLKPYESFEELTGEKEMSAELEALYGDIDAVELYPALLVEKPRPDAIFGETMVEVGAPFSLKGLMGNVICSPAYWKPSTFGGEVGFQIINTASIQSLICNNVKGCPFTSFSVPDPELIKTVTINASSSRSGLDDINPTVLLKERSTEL
Briefly: Inhibition of recombinant human COX2 assessed as decrease in PGE2 release after 10 mins by EIA.

In assay [12] the test system is RAW264.7. Briefly: Inhibition of nitric oxide production in mouse RAW264.7 cells by griess assay. Format: functional, cell-based.
For a further assay, the system named is Mus musculus. Description: Antidiabetic activity in db/db mouse assessed as reduction in serum glucose level at 10 to 30 mg/kg, po after 1 week relative to control. Format: functional. On the set-up: scale not given: the % may be the effect or the level left.
Assay [13] has as its system Human immunodeficiency virus 1. Description: Antiviral activity against HIV1 infected in human C8166 cells. Format: functional, organism-based. Conditions: Human immunodeficiency virus 1, C8166.

This note sets out measurements from ChEMBL document CHEMBL4364320, “An insight into the medicinal perspective of synthetic analogs of indole: A review” (Eur J Med Chem, 2019).

Values after ≈ are worked out from the molar mass of the structure shown.

As a reminder, the IC50 is the midpoint of a concentration-inhibition curve. By Ki is commonly meant the equilibrium dissociation constant of an inhibitor or competing ligand from its target. In general, EC50 refers to the midpoint of the concentration-response curve. Broadly, the MIC99 is an inhibitory concentration at the 99% level, which refers to growth in some studies and to a panel of isolates in others. What is called MIC is the lowest concentration that inhibits growth of the organism.

Sequence of Sodium-dependent serotonin transporter (P31645 whole entry): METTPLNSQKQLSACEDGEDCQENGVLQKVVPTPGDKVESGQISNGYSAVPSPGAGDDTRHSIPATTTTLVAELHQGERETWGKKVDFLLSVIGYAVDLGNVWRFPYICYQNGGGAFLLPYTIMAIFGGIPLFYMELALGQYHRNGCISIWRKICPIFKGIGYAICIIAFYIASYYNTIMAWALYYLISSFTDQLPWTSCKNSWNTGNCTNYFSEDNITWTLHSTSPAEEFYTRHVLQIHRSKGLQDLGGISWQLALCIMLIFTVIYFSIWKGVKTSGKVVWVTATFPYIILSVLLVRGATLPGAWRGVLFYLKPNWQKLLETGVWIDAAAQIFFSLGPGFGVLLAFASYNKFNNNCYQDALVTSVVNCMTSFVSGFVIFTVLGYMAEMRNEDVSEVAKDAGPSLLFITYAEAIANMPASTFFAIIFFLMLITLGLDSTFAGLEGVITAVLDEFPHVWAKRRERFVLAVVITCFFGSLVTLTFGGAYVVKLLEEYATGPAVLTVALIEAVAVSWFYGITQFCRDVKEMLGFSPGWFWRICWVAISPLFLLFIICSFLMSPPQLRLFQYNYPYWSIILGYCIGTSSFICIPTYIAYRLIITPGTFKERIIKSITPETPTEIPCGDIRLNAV

In [1], `COP(=O)(c1cc(C)cc(/C=C/C#N)c1)c1c(C(N)=O)[nH]c2ccc(Cl)cc12` (stereo not drawn) yielded an IC50 of 0.08 nM.

Regarding `Fc1cc2c(c(OCCNCCc3c[nH]c4ccc(F)cc34)c1)OCCC2`, in assay [2], affinity was put at a Ki of 5 nM.

Turning to `CC1=C[C@@H]2c3c(CCN(C)C)c4ccccc4n3[C@@H](c3[nH]c4ccccc4c3CCN(C)C)[C@@H]2C(C)(C)C1`, the IC50 in the assay with Plasmodium falciparum was 80 nM.

For the molecule `O/N=C/c1c(-c2ccccc2)[nH]c2ccccc12`, the values for the half-maximal inhibitory concentration (IC50) (in [3]; in the assay with RAW264.7 [4]) were 6900 nM and 4400 nM, respectively. In assay [5], `CCOC(=O)Nc1[nH]c2ccc(Br)cc2c1C(C)(O)C(F)(F)F` (stereo not drawn) gave a 50% inhibitory concentration (IC50) of 3 nM. `Cc1cc(C)nc(NS(=O)(=O)c2ccc(/N=C3\C(=O)Nc4ccccc43)cc2)n1` came in with a concentration for a half-maximal effect (EC50) in assay [6] of 8 µg/mL. `N#Cc1ccc(C2SCC(=O)N2NC(=O)c2[nH]c3ccc(F)cc3c2-c2ccccc2)cc1` (stereo not drawn) yielded an MIC99 in assay [7] of 6.25 µg/mL (≈ 13.7 µM). With `CNCCc1c(/C=C/[C@@]2(C)C[C@H](C=C(C)C)c3c(CCNC)c4ccccc4n32)[nH]c2ccccc12`, in the assay on Plasmodium falciparum, the half-maximal inhibitory concentration (IC50) was in the range of 80 to 1420 nM.

In turn, `CNCCc1c([C@H]2[C@H]3[C@H](C=C(C)CC3(C)C)c3c(CCNC)c4ccccc4n32)[nH]c2ccccc12` yielded an IC50 with Plasmodium falciparum of 80 to 1420 nM.

In assay [8], `C[C@@H]1[C@H]2C[C@@H](C[C@H]1NC(=O)c1cc3c(F)cc(F)cc3[nH]1)C2(C)C` yielded an MIC of 0.012 µM (≈ 3.99 ng/mL).

For the molecule `CC(C)=C[C@H]1C[C@](C)(/C=C/c2[nH]c3ccccc3c2CCN(C)C)n2c1c(CCN(C)C)c1ccccc12`, the IC50 in the assay on Plasmodium falciparum was 80 to 1420 nM. Take `CCCCC(O)(c1c(NC(=O)OCC)[nH]c2ccc(Br)cc12)C(F)(F)F` (stereo not drawn): in assay [5], the IC50 came out at 3 nM. `CC(=O)c1c(C)n(Cc2ccccc2)c2ccc(OCCCC(=O)O)cc12`: the IC50 on Dihydrofolate reductase [9] is 150000 nM; against Dihydrofolate reductase [10] it was 980000 nM. With `COc1ccc2cc(-c3cc4ccccc4[nH]3)ccc2c1`, in [3], half-maximal inhibition (IC50) required 600 nM. In turn, `CC(=O)N1C(=O)/C(=N\c2ccc(S(=O)(=O)Nc3nc(C)cc(C)n3)cc2)c2ccccc21` displayed an EC50 in assay [6] of 8000 nM. The molecule `CC(C)=C[C@H]1C[C@@](C)(/C=C/c2[nH]c3ccccc3c2CCN(C)C)n2c1c(CCN(C)C)c1ccccc12` came in with an IC50 in the assay on Plasmodium falciparum of 80 to 1420 nM. For the molecule `C#CCc1cn(C)c2c(O)cccc12`, the concentration for half-maximal inhibition (IC50) was determined as 6220 nM in assay [11] and 39800 nM with RAW264.7 [12]. In assay [7], `O=C(NN1C(=O)CSC1c1ccc([N+](=O)[O-])cc1)c1[nH]c2ccc(F)cc2c1-c1ccccc1` (stereo not drawn) had an MIC99 of 6.25 µg/mL (≈ 13.1 µM). Regarding `N#Cc1c(-c2ccccc2)[nH]c2ccccc12`, the half-inhibitory concentration (IC50) in [3] is 8500 nM; in the assay on RAW264.7 [4] it was 4800 nM. Regarding `Cc1c(CC(=O)O)c2cc(O)ccc2n1C(=O)c1ccc(Cl)cc1`, in the assay with Mus musculus, the Activity amounted to 44.3%. Molecule `C[C@@H]1CC[C@H]2[C@@H](C)C(=O)O[C@@H]3O[C@@]4(C)CC[C@@H]1[C@]32OO4` [ARTEMISININ] yielded an IC50 with Plasmodium falciparum of 80 to 1420 nM.

`CO[C@H]1/C=C/O[C@@]2(C)Oc3c(C)c(O)c4c(O)c(c(/C=N/N5CCN(C)CC5)c(O)c4c3C2=O)NC(=O)/C(C)=C\C=C\[C@H](C)[C@H](O)[C@@H](C)[C@@H](O)[C@@H](C)[C@H](OC(C)=O)[C@@H]1C` [RIFAMPIN] yielded an MIC99 in assay [7] of 0.25 µg/mL (≈ 0.304 µM). As for `CN(CCOc1ccc(CC2SC(=O)NC2=O)cc1)c1ccccn1` (stereo not drawn) [ROSIGLITAZONE], in the assay on Mus musculus, the Activity was found to be 66%. For the molecule `Cc1cn([C@H]2C[C@H](N=[N+]=[N-])[C@@H](CO)O2)c(=O)[nH]c1=O` [ZIDOVUDINE], a half-maximal effect in assay [13] (EC50) was put at 1100 nM.
